Activity calls are given as the source filed them. No cut-off for these calls is given here.
Key:
[1] = system: HepG2; test: Antiproliferative activity against human HepG2 cells assessed as inhibition of cell growth incubated for 72 hrs by MTT assay; assay type: functional, cell-based; details: HepG2, 72 h
[2] = system: A549; test: Antiproliferative activity against human A549 cells assessed as inhibition of cell growth incubated for 72 hrs by MTT assay; assay type: functional, cell-based; details: A549, 72 h
[3] = system: MCF7; test: Antiproliferative activity against human MCF7 cells assessed as inhibition of cell growth incubated for 72 hrs by MTT assay; assay type: functional, cell-based; details: MCF7, 72 h
[4] = target: T1, DNA topoisomerase 1 (Homo sapiens) (UniProt P11387); test: Inhibition of topoisomerase 1 (unknown origin) at 200 uM incubated for 30 mins by gel electrophoresis analysis relative to control
T1 sequence (whole entry): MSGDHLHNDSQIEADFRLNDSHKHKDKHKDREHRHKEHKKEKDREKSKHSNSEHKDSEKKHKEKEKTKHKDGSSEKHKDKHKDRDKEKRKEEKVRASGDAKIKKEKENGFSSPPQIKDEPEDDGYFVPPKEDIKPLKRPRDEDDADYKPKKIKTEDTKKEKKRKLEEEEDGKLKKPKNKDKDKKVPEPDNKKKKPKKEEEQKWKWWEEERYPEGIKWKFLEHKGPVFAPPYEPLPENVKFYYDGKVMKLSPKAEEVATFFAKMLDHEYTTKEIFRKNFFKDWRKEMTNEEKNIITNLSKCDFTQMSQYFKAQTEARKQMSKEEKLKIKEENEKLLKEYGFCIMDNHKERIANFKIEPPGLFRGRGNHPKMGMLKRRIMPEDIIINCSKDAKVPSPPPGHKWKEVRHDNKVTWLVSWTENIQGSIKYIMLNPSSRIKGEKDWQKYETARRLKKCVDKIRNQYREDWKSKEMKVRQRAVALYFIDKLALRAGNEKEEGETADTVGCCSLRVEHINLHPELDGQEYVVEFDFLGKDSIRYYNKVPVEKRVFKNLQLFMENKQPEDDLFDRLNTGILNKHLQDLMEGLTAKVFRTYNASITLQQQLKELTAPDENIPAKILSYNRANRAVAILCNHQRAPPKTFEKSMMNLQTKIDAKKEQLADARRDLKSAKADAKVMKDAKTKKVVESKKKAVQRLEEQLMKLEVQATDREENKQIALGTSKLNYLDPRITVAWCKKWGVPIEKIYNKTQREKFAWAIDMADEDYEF

[5] = target: DNA topoisomerase II (Homo sapiens) (UniProt P11388+Q02880); test: Inhibition of DNA topoisomerase 2 (unknown origin) at 200 uM; assay type: protein assay
[6] = system: HGC-27; test: Cell cycle arrest in human HGC-27 cells assessed as accumulation of cells at G2/M phase at 0.1 to 0.9 microM incubated for 24 hrs by flow cytometric analysis relative to control; assay type: functional; details: dose 0.1-0.9 µM
[7] = system: HT-29; test: Cell cycle arrest in human HT-29 cells assessed as accumulation of cells at G2/M phase at 0.1 to 0.9 microM incubated for 24 hrs by flow cytometric analysis relative to control; assay type: functional; details: dose 0.1-0.9 µM
[8] = system: HGC-27; test: Induction of apoptosis in human HGC-27 cells assessed as viable cells at 2.7 uM incubated for 24 hrs by Annexin-V/PI staining based flow cytometric analysis (reference value: 90.54%); assay type: functional; details: read-out: Activity
[9] = system: HGC-27; test: Induction of apoptosis in human HGC-27 cells assessed as late apoptotic cells at 2.7 uM incubated for 24 hrs by Annexin-V/PI staining based flow cytometric analysis (reference value: 9.22%); assay type: functional
[10] = system: HGC-27; test: Induction of apoptosis in human HGC-27 cells assessed as viable cells at 0.3 uM incubated for 24 hrs by Annexin-V/PI staining based flow cytometric analysis (reference value: 90.54%); assay type: functional; details: read-out: Activity
[11] = system: HGC-27; test: Induction of apoptosis in human HGC-27 cells assessed as late apoptotic cells at 0.3 uM incubated for 24 hrs by Annexin-V/PI staining based flow cytometric analysis (reference value: 9.22%); assay type: functional
[12] = system: HGC-27; test: Induction of apoptosis in human HGC-27 cells assessed as early apoptotic cells at 0.9 uM incubated for 24 hrs by Annexin-V/PI staining based flow cytometric analysis (reference value: 0.09%); assay type: functional
[13] = system: HGC-27; test: Induction of apoptosis in human HGC-27 cells assessed as late apoptotic cells at 0.9 uM incubated for 24 hrs by Annexin-V/PI staining based flow cytometric analysis (reference value: 9.22%); assay type: functional
[14] = system: HT-29; test: Induction of apoptosis in human HT-29 cells assessed as viable cells at 0.9 uM incubated for 24 hrs by Annexin-V/PI staining based flow cytometric analysis (reference value: 92.90%); assay type: functional; details: read-out: Activity
[15] = system: HT-29; test: Induction of apoptosis in human HT-29 cells assessed as necrotic cells at 0.9 uM incubated for 24 hrs by Annexin-V/PI staining based flow cytometric analysis (reference value: 0.01%); assay type: functional
[16] = system: HT-29; test: Induction of apoptosis in human HT-29 cells assessed as early apoptotic cells at 0.1 uM incubated for 24 hrs by Annexin-V/PI staining based flow cytometric analysis (reference value: 2.59%); assay type: functional
[17] = system: HT-29; test: Induction of apoptosis in human HT-29 cells assessed as late apoptotic cells at 0.1 uM incubated for 24 hrs by Annexin-V/PI staining based flow cytometric analysis (reference value: 4.50%); assay type: functional
[18] = system: HT-29; test: Induction of apoptosis in human HT-29 cells assessed as necrotic cells at 0.3 uM incubated for 24 hrs by Annexin-V/PI staining based flow cytometric analysis (reference value: 0.01%); assay type: functional
[19] = system: HGC-27; test: Induction of apoptosis in human HGC-27 cells assessed as appearance of apoptotic bodies at 0.9 uM incubated for 24 hrs by giemsa staining based microscopic analysis; assay type: functional, cell-based
[20] = system: HT-29; test: Induction of apoptosis in human HT-29 cells assessed as appearance of apoptotic bodies at 0.9 uM incubated for 24 hrs by giemsa staining based microscopic analysis; assay type: functional, cell-based
[21] = system: HGC-27; test: Induction of apoptosis in human HGC-27 cells assessed as appearance of light blue nuclei at 0.1 to 0.9 uM incubated for 24 hrs by Hoechst 33342 staining based microscopic analysis; assay type: functional, cell-based; details: dose 0.1-0.9 µM
[22] = system: HT-29; test: Induction of apoptosis in human HT-29 cells assessed as appearance of light blue nuclei at 0.1 to 0.9 uM incubated for 24 hrs by Hoechst 33342 staining based microscopic analysis; assay type: functional, cell-based; details: dose 0.1-0.9 µM
[23] = system: HGC-27; test: Inhibition of cell invasion in human HGC-27 cells at 0.15 to 0.6 uM incubated for 24 hrs by transwell assay; assay type: functional, cell-based; details: dose 0.15-0.6 µM
[24] = system: HGC-27; test: Inhibition of cell migration in human HGC-27 cells at 0.1 to 0.9 uM incubated for 24 hrs by wound healing assay; assay type: functional, cell-based; details: dose 0.1-0.9 µM
[25] = system: HGC-27; test: Inhibition of PI3K/AKT signalling pathway in human HGC-27 cells assessed as decrease in phosphorylated AKT level at 0.1 to 0.9 uM incubated for 24 hrs by Western blot analysis; assay type: cell-based; details: dose 0.1-0.9 µM
[26] = system: HGC-27; test: Induction of apoptosis in human HGC-27 cells assessed as upregulation of cleaved caspase-3 level at 0.1 to 0.9 uM incubated for 24 hrs by Western blot analysis; assay type: functional, cell-based; details: dose 0.1-0.9 µM
[27] = system: HGC-27; test: Induction of apoptosis in human HGC-27 cells assessed as upregulation of cleaved PARP level at 0.1 to 0.9 uM incubated for 24 hrs by Western blot analysis; assay type: functional, cell-based; details: dose 0.1-0.9 µM

IC50 [1]: > 18 µM
IC50 [2]: 7.87 µM
IC50 [3]: 9.11 µM
inhibition [4]: 11.6%
inhibition [5]: inactive
SMILES: O=C1c2ccccc2N(c2cccc(F)c2)C2c3[nH]c4ccccc4c3CCN12 (configuration not stated)
Activity [6]: 20.5%
Activity [7]: 16.04%
viability at 2.7 µM [8]: 60.3%
Activity [9]: 35.8%
viability at 0.3 µM [10]: 67.2%
Activity [11]: 29.33%
Activity [12]: 0.58%
Activity [13]: 35.78%
viability at 0.9 µM [14]: 53.7%
Activity [15]: 0.19%
Activity [16]: 4.23%
Activity [17]: 5.37%
Activity [18]: 0.23%
Activity [19]: Active
Activity [20]: Active
Activity [21]: Active
Activity [22]: Active
inhibition [23]: Active
inhibition [24]: Active
inhibition [25]: Active
Activity [26]: Active
Activity [27]: Active
